# How the values were obtained:
# C57B1I6J mice = assay: Catalepsy in the mouse bar test (EPS model); assay type: in vivo; settings: 2 mg/kg i.p.
# Source text: Antipsychotic drugs are known to induce extrapyramidal syndrome (EPS) in animals and in humans. An animal model considered to be predictive of EPS is the mouse bar test, which measures cataleptic responses to pharmacological agents.
# Male C57B1I6J mice from Jackson Laboratories (Bar Harbor, Me.) were used. Mice were received at 6-weeks of age. Upon receipt, mice were assigned unique identification numbers (tail marked) and were group housed with 4 mice/cage in OptiMICE ventilated cages. All animals remained housed in groups of four during the remainder of the study. All mice were acclimated to the colony room for at least two weeks prior to testing and were subsequently tested at an average age of 8 weeks. During the period of acclimation, mice were examined on a regular basis, handled, and weighed to assure adequate health and suitability. Animals were maintained on a 12 h/12 h light/dark cycle. The room temperature was maintained between 20 and 23° C. with a relative humidity maintained between 30% and 70%. Chow and water were provided ad libitum for the duration of the study. In each test, animals were randomly assigned across treatment groups.
# The following compounds were used for this study. 1) Compound No. 83, 88 or 90 (0.03, 0.1, 0.3, 1, 3, 10, 30) was dissolved in 3% Tween in PBS and administered orally at a dose volume of 10 mL/kg; 2) Haloperidol (2 mg/kg) was dissolved in 10% DMSO and administered i.p. at a dose volume of 10 mL/kg.
# The front paws of a mouse were placed on a horizontal metal bar raised 2″ above a Plexiglas platform and time was recorded for up to 30 seconds per trial. The test ended when the animal's front paws returned to the platform or after 30 seconds. The test was repeated three times and the average of the three trials was reported as the intensity index of catalepsy. Antipsychotic agents such as haloperidol cause rigidity as a side effect. Animals treated with haloperidol will hold on to the bar without moving for several minutes. Mice were brought to the activity experimental room for at least 1 h acclimation to the experimental room conditions prior to testing. Following injection of either vehicle, Compound No. 83, 88 or 90, or haloperidol, catalepsy was assessed at 3 time points: 30 min, 1 h, and 3 h. At the end of each trial, the apparatus was thoroughly cleaned with 70% ethanol.
# Data were analyzed by analysis of variance (ANOVA) followed by post-hoc comparisons with Fisher Tests when appropriate. An effect was considered significant if p<0.05.
# [1] = target: T1, human recombinant serotonin (5-Hydroxytryptamine) 5-HT6 receptor (Homo sapiens, UniProt P50406); assay: Serotonin 5-HT6 radioligand binding ([3H]LSD)
# T1 construct: expressed in transfected cells; host or cells: human HeLa cells
# T1 sequence (P50406 whole entry): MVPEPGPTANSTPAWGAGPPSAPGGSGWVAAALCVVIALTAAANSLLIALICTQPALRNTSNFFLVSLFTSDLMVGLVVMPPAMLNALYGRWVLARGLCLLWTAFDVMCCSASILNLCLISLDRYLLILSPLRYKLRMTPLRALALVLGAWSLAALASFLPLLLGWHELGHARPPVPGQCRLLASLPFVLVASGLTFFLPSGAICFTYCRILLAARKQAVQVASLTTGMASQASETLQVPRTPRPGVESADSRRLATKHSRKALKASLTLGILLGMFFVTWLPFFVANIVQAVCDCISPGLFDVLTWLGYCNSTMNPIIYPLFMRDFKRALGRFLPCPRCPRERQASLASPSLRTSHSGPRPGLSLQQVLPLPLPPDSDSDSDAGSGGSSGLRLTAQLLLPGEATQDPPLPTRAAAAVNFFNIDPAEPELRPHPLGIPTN
# Description: Compounds of the invention were incubated with 1.5 nM [3H]Lysergic acid diethylamide (LSD) for 120 min. at 37° C. […] Receptor proteins were filtered and washed, the filters were then counted to determine [3H]LSD specifically bound. Compounds were screened at 1 μM or lower, using 1% DMSO as vehicle. Biochemical assay results are presented as the percent inhibition of specific binding in Table 10.
# histamine receptor H1 [2] = target: T2, histamine receptor H1 (Homo sapiens, UniProt P35367); assay: Histamine H1 radioligand binding ([3H]Pyrilamine)
# T2 sequence (P35367 whole entry): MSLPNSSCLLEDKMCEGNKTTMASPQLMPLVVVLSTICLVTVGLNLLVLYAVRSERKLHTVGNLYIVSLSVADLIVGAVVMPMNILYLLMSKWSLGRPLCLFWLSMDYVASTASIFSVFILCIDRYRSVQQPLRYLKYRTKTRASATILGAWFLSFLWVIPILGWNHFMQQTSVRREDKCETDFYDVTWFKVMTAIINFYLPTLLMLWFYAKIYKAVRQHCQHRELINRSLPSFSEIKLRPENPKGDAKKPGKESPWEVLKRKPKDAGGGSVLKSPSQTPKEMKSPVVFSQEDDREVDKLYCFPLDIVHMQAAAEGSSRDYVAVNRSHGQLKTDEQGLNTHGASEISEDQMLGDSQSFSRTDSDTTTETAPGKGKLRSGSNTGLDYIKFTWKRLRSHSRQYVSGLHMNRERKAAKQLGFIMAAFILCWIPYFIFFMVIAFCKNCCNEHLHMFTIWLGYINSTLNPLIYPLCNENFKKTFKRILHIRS
# Method in brief: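 Values are percent inhibition of specific [3H]pyrilamine (1.2 nM) binding with compounds at ≤1 μM (1% DMSO vehicle); 180 min incubation at 25 °C, pH 7.4 Tris buffer, on CHO-expressed human H1 receptor; 1 μM pyrilamine defined nonspecific binding, bound ligand counted after filtration.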
# [3] = target: T3, human recombinant serotonin (5-Hydroxytryptamine) 5-HT2C receptor (Homo sapiens, UniProt P28335); assay: Serotonin 5-HT2C radioligand binding ([3H]Mesulergine); settings: compound at 0.1 μM; read-out: Inhibition of ligand binding, Serotonin 5-HT2C (percent inhibition of specific binding)
# T3 construct: expressed in transfected cells; host or cells: Chinese hamster ovary (CHO-K1) cells
# T3 sequence (P28335 33-458): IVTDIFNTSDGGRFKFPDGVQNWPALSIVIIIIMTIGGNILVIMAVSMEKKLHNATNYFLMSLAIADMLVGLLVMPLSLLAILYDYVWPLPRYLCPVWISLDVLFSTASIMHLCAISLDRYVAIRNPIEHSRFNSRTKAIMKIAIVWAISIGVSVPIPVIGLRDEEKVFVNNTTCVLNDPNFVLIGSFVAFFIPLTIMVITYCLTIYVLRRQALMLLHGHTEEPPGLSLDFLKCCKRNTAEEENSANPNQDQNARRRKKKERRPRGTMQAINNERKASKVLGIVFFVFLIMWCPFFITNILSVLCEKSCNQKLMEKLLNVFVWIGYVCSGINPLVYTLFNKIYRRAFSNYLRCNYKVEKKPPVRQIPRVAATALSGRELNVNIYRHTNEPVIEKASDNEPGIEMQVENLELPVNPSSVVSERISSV
# Method in brief: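 Compounds tested at 1 μM or lower (1% DMSO vehicle) for displacement of 1 nM [3H]Mesulergine over 60 min at 25° C. Specific binding determined by filtration counting, with 1 μM Mianserin defining non-specific binding; values are percent inhibition.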
# [4] = target: T4, human recombinant serotonin (5-Hydroxytryptamine) 5-HT2A receptor (Homo sapiens, UniProt P28223); assay: Serotonin 5-HT2A radioligand binding ([3H]Ketanserin)
# T4 construct: expressed in transfected cells; host or cells: Chinese hamster ovary (CHO-K1) cells
# T4 sequence (P28223 whole entry): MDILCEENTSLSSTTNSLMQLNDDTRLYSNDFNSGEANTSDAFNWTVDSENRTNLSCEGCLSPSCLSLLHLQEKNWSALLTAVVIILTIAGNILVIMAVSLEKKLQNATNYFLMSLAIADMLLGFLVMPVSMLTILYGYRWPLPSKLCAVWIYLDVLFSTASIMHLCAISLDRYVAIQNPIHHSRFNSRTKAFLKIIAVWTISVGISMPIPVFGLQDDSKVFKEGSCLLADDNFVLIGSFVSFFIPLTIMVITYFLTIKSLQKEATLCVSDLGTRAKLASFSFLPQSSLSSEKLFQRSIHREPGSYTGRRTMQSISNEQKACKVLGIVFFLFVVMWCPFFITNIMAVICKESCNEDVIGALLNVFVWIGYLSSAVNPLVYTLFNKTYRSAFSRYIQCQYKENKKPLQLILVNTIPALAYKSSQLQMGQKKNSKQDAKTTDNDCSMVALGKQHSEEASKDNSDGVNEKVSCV
# Description: Compounds of the invention were incubated with 0.5 nM [^3H]Ketanserin for 60 min. at 25° C. Non-specific binding was estimated in the presence of 1 μM Mianserin. Receptor proteins were filtered and washed, the filters were then counted to determine [^3H]Ketanserin specifically bound.
# [5] = target: human dopamine D2L receptor (Homo sapiens, UniProt P14416); assay: Dopamine D2L radioligand binding ([3H]Spiperone); settings: percent inhibition of specific binding, compound at 1 μM
# human dopamine D2L receptor, sequence (P14416 whole entry): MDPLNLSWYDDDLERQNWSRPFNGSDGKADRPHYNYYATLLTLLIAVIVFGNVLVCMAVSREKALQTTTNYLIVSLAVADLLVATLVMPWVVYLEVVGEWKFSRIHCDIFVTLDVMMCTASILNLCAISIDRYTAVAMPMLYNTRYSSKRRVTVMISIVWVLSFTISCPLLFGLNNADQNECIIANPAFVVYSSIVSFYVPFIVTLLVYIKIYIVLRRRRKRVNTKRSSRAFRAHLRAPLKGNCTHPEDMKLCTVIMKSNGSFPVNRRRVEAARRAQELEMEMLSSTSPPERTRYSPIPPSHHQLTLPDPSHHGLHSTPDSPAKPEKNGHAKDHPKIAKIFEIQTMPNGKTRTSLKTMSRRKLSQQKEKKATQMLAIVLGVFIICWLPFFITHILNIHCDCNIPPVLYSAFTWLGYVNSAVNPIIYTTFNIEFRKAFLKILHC
# Source text: Non-specific binding was estimated in the presence of […] Haloperidol. Receptor proteins were filtered and washed, the filters were then counted to determine [^3H]Spiperone specifically bound. […] Biochemical assay results are presented as the percent inhibition of specific binding in Table 9.
# histamine receptor H1 [6] = target: T2, histamine receptor H1; assay: Inhibition of binding of a ligand (Pyrilamine) to histamine receptor H1; settings: as compared to the unsubstituted vinyl counterpart (106 vs compound 415; 85 vs compound 95)
# Description: The number and extent of undesirable side effects increases with increasing affinity for the H1 receptor Thus, in one aspect, compounds of the formulae herein display reduced, low or no affinity to histamine receptor H1. […] Inhibition of binding of a ligand to H1 for all variations detailed herein is determined by a suitable assay known in the art such as the assay described herein. […] In one variation, compounds of the formulae herein inhibit binding of a ligand to H1 by between about 50% to about 80%. […] In one variation, compounds of the formulae herein inhibit binding of Pyrilamine to H1 as determined in the assay described herein. In a further variation, percent inhibition of binding to H1 is measured by assays detailed herein.
# The binding properties of compounds disclosed herein to a panel of aminergic G protein-coupled receptors including adrenergic receptors, dopamine receptors, serotonin receptors, histamine receptors and an imidazoline receptor may be determined. Binding properties may be assessed by methods known in the art, such as competitive binding assays. In one variation, compounds are assessed by the binding assays detailed herein. […]
# In one aspect, DDT compounds display low affinity to histamine receptor H1. […] Inhibition of binding of a ligand to H1 for all variations detailed herein is determined by a suitable assay known in the art such as the assay described herein. […]
# male Wistar rat = assay: Conditioned avoidance response (CAR) model; assay type: in vivo; settings: 0.3 mg/kg, s.c.
# Description: All currently approved antipsychotic agents (typical and atypical) are known to have the ability to selectively suppress conditioned avoidance response (CAR) behavior in the rat. This evidence makes CAR one of the primary tests to assess antipsychotic activity of novel compounds.
# The effects of Compound Nos. 83, 88 and 90, at concentrations including 0.1, 0.3, 1, 3, 10 and 20 mg/kg, p.o., in the conditioned avoidance response model were assessed in the male Wistar rat. Risperidone (0.3 mg/kg, s.c.) was used in the present study as a positive reference compound.
# For each testing session, animals were first placed for a 4-min. habituation period in a shuttlebox with an electrified grid floor. Then, rats were submitted to 30 trials spaced by intertribal intervals varying at random between 20 and 30 sec. Each trial consisted of a 10-sec. light stimulus (conditioned stimulus, CS) followed by a 10-sec. electric foot shock (unconditioned stimulus, US) in presence of the light presented in the compartment where the rat is located. If the animal moved to the other compartment during the initial 10-sec. of the trial, the light was terminated (no shock was delivered) and the response was recorded as an avoidance response. If the rat changed compartment during the foot shock, the light and the shock were terminated and the response was recorded as an unconditioned response. […] If a response was made during an intertrial interval, the response was recorded as an intertrial crossing. Training was performed 5 days per week with one session of 30 trials per day, until rats reached the performance criterion of 80% of avoidance response on at least two consecutive daily sessions. […] A minimal wash-out period of 48 hours was allowed between 2 treatments. During the wash-out period, animals were trained until they recovered an avoidance performance of at least 80%.
# Statistical analysis was performed using a Friedman two-way ANOVA by ranks followed by the Wilcoxon matched-pairs signed-ranks test to test each dose of the test compound administered versus vehicle control treated rats.
compound,measurement,setting,value
"O=C(CCCN1CCC(O)(c2ccc(Cl)cc2)CC1)c1ccc(F)cc1 [Haloperidol, haloperidol, reference compound]",catalepsy (bar test),C57B1I6J mice,increased catalepsy
"C/C(=C\n1c2c(c3cc(C)ccc31)CN(C)CC2)c1ccc(C)nc1 [compound 85, (E)-2,3,4,5-tetrahydro-2,8-dimethyl-5-(2-(6-methylpyridin-3-yl)prop-1-enyl)-1H-pyrido[4,3-b]indole]","Inhibition of ligand binding, Serotonin 5-HT6 (percent inhibition of specific binding)","[1]; compound at 0.1 μM, 0.1 µM",19%
same,inhibition at 0.1 µM,"[1]; compound at 0.1 μM, read-out: Inhibition of ligand binding, Serotonin 5-HT6 (percent inhibition of specific binding)",22%
same,inhibition at 1 µM,"[1]; compound at 1 μM, read-out: Inhibition of ligand binding, Serotonin 5-HT6 (percent inhibition of specific binding)",68%
same,"Histamine Binding (1 μM) H1, percent inhibition of specific binding",histamine receptor H1 [2]; 1 μM,13%
same,inhibition at 1 µM,"histamine receptor H1 [2]; read-out: Histamine Binding (1 μM) H1, percent inhibition of specific binding, 1 μM",9%
same,inhibition at 0.1 µM,[3],92%
same,"Inhibition of ligand binding, Serotonin 5-HT2A (percent inhibition of specific binding)","[4]; compound at 0.1 μM, 0.1 µM",98%
same,inhibition at 0.1 µM,"[4]; read-out: Inhibition of ligand binding, Serotonin 5-HT2A (percent inhibition of specific binding), compound at 0.1 μM",88%
same,"Inhibition of ligand binding, Dopamine D2L",[5]; 1 µM,57%
same,inhibition at 1 µM,"[5]; read-out: Inhibition of ligand binding, Dopamine D2L",43%
same,binding affinity to H1,histamine receptor H1 [6],lower binding affinity to H1
"Cc1nc2n(c(=O)c1CCN1CCC(c3noc4cc(F)ccc34)CC1)CCCC2 [risperidone, reference compound]","number of avoidance responses, change versus pretreatment",male Wistar rat,−61%
same,"number of intertrial crossings, change versus pretreatment",male Wistar rat,−69%
same,number of escape failures,"male Wistar rat; increased in 7/12 animals, 0±0 before treatment",4±1 escape failures
